Values quoted from earlier work, collected in US7815928B2, “Device for local administration of solid or semi-solid formulations and delayed-release formulations for proposal parenteral administration and preparation process” (Societe de Conseils de Recherches et d'Applications …, priority 1996, dated 2010).

System: smooth muscle cells
Settings: after endothelial damage

heparin
proliferation of smooth muscle cells: inhibits the proliferation
